The source made the active and inactive calls.

Data set [1] in a line: Half-life in ICR mouse at 40 mg/kg, po measured upto 24 hrs by LC-MS/MS analysis. The format is ADME, organism-based. The following applies: in vivo.
For data set [2], the target named is T1, Lysine-specific histone demethylase 2 (Homo sapiens) (UniProt Q8NB78).
T1 sequence (whole entry): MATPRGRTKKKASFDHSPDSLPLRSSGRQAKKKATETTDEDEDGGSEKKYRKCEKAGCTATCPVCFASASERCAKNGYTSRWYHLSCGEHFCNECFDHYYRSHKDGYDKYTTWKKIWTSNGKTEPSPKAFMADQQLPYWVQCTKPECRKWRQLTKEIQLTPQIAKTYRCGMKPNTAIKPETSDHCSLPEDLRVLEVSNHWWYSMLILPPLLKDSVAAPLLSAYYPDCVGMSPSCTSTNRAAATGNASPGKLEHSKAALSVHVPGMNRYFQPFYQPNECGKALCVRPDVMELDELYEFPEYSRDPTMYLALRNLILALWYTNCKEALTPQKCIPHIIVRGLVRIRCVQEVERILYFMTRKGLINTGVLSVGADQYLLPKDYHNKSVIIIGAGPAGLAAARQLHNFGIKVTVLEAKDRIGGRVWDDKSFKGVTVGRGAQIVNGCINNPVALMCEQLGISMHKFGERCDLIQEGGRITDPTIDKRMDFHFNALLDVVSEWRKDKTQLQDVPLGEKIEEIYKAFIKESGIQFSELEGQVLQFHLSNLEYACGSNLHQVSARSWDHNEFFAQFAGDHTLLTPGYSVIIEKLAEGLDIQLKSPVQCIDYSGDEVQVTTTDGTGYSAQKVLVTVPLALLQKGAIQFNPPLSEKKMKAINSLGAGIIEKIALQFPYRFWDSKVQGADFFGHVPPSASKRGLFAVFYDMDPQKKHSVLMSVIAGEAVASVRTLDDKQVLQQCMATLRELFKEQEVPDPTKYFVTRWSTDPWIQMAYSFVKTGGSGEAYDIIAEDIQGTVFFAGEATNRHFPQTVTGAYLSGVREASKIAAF
The data set is described as follows: Inhibition of LSD2 (unknown origin) at 10 uM relative to control.

Data set [3] is described as follows: Toxicity in mouse implanted with MFC assessed as reduction in body weight at 10 to 40 mg/kg/day, po administered daily for 2 weeks and measured every 2 days. In kind it is organism-based. The conditions noted are these: in vivo, 336 h, dose 10-40 mg/kg/day.
Data set [4] deals with T2, MAO-A (Amine oxidase [flavin-containing] A) (Homo sapiens, UniProt P21397).
T2 sequence (P21397 whole entry): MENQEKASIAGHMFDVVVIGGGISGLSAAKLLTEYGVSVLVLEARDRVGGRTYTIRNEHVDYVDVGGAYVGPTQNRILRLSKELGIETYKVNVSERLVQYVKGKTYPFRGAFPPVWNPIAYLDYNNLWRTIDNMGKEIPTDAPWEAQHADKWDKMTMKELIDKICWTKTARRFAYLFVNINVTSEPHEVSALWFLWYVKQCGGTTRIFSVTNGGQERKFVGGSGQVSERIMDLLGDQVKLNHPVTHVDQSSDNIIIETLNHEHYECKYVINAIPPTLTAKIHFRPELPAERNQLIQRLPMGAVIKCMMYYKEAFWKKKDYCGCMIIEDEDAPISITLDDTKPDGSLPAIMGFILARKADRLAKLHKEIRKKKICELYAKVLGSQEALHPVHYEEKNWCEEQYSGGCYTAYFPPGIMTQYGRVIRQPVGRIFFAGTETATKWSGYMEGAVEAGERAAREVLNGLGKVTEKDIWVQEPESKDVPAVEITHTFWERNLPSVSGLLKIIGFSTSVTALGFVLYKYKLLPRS
The experiment in a line: Inhibition of MAO-A (unknown origin) at 10 uM relative to control.

Data set [5] relates to BGC-823. The data set is described as follows: Downregulation of PD-L1 expression in LSD1 knockout human BGC-823 cells at 2 to 8 uM incubated for 5 days by flow cytometry analysis. The format is functional, cell-based. The conditions noted are these: dose 2-8 µM, time 5.0 day. (In general: A flow cytometer gives signals particle by particle.)
The nature of data set [6]: Toxicity in mouse implanted with MFC assessed as heart damage at 10 to 40 mg/kg/day, po administered daily for 2 weeks and measured every 2 days by H and E staining based assay. The format is organism-based. The conditions noted are these: in vivo, 336 h, dose 10-40 mg/kg/day.
The subject of data set [7] is MFC. The data set is described as follows: Antitumor activity against MFC cells implanted in mouse assessed as reduction in tumor size at 10 to 40 mg/kg/day, po administered daily for 2 weeks and measured every 2 days. In kind it is functional, organism-based. The conditions noted are these: dose 10-40 mg/kg/day.
Data set [8] addresses Programmed cell death protein 1/Programmed cell death 1 ligand 1 (Homo sapiens) (UniProt Q15116+Q9NZQ7). The data set is described as follows: Inhibition of PD-1 to PD-L1 protein-protein interaction in human BGC-823 cells incubated for 5 days by DAPI staining based confocal microscopic analysis. The format is cell-based. The following applies: dose 2-8 µM, time 5.0 day.
Data set [9] in a line: Toxicity in mouse implanted with MFC assessed as liver damage at 10 to 40 mg/kg/day, po administered daily for 2 weeks and measured every 2 days by H and E staining based assay. In kind it is organism-based. The following applies: in vivo, 336 h, dose 10-40 mg/kg/day.
Data set [10] in a line: Toxicity in mouse implanted with MFC assessed as lung damage at 10 to 40 mg/kg/day, po administered daily for 2 weeks and measured every 2 days by H and E staining based assay. In kind it is organism-based. The conditions noted are these: in vivo, 336 h, dose 10-40 mg/kg/day.
Data set [11] can be described thus: Toxicity in mouse implanted with MFC assessed as spleen damage at 10 to 40 mg/kg/day, po administered daily for 2 weeks and measured every 2 days by H and E staining based assay. In kind it is organism-based. The conditions noted are these: in vivo, 336 h, dose 10-40 mg/kg/day.
Data set [12] has as its system MFC. The data set is described as follows: Antitumor activity against MFC cells implanted in mouse assessed as reduction in Ki67 expression at 10 to 40 mg/kg/day, po administered daily for 2 weeks and measured every 2 days. The format is functional, organism-based. The conditions noted are these: dose 10-40 mg/kg/day.
For data set [13], the target named is T3, Amine oxidase [flavin-containing] A (Homo sapiens, UniProt P21397).
T3 sequence (P21397 whole entry): T2 sequence (P21397 whole entry)
The data set is described as follows: Inhibition of MAO-A (unknown origin).

The test system of data set [14] is MFC. The experiment in a line: Antitumor activity against MFC cells implanted in mouse assessed as reduction in tumor growth at 10 to 40 mg/kg/day, po administered daily for 2 weeks and measured every 2 days. The conditions noted are these: dose 10-40 mg/kg/day. The format is functional, organism-based.
The nature of data set [15]: Drug uptake in ICR mouse plasma at 40 mg/kg, po. In kind it is ADME, organism-based. The conditions noted are these: in vivo.
The test system of data set [16] is BGC-823. The data set is described as follows: Effect on H3K4me2 methylation in LSD1 knockout human BGC-823 cells at 2 to 8 uM by Western blotting analysis. The format is functional, cell-based. The conditions noted are these: dose 2-8 µM. (In general: Immunoblotting shows a protein as a band on a membrane.)
Data set [17] relates to BGC-823. The experiment in a line: Anticancer activity against LSD-1 knockout human BGC-823 cells cocultured with human monocytes assessed as increase in CD3/CD28 activated T-cell killing response at 2 to 8 uM incubated for 5 days by microscopic analysis. In kind it is functional, cell-based. The following applies: dose 2-8 µM, time 5.0 day.
For data set [18], the system named is BGC-823. The data set is described as follows: Downregulation of PD-L1 expression in human BGC-823 cells at 2 to 8 uM by Western blotting analysis. The format is functional, cell-based. The following applies: dose 2-8 µM, TDE = time-dependent effect.
For data set [19], the system named is MFC. The experiment in a line: Antitumor activity against MFC cells implanted in mouse assessed as increase in infiltration of CD8+ cells at 10 to 40 mg/kg/day, po administered daily for 2 weeks and measured every 2 days by immunohistochemistry assay. The format is functional, organism-based. The conditions noted are these: dose 10-40 mg/kg/day.

For `CCN(CC)c1ccc(Nc2nc(-c3ccc(S(C)(=O)=O)cc3)nc3ccccc23)cc1`, in data set [1], the half-life (as a rule, the time needed for the level to fall by half in the phase considered) was 1.22 h. The values for the inhibition in data set [2] and in data set [8] were < 10% and “Dose-Dependent Effect”, respectively. The Activity result in data set [3] was “Non-Toxic”; in data set [6], “Non-Toxic”; in data set [9], “Non-Toxic”; in data set [10], “Non-Toxic”; in data set [11], “Non-Toxic”; in the data set with BGC-823 [18] it was “Tde”. For the same molecule, the inhibition (in general, how much of the control response was suppressed) at 10 µM in data set [4] was < 10%. Also, the outcome with BGC-823 [5], in the data set with BGC-823 [16] and in the data set with BGC-823 [17] was inactive. Also, the outcome in the data set on MFC [7], in the data set on MFC [12], with MFC [14] and in the data set with MFC [19] was Active. In addition, the 50% inhibitory concentration (IC50) (usually the concentration at which inhibition is half-maximal) in [13] was > 10 µM. Moreover, the Drug uptake result in data set [15] is reported as “Active”.
